From patent US5968751A, “Method for detecting the presence of protein C antibody in a fluid sample” (The Scripps Research Institute, priority 1997, dated 1999)
Read-outs that look alike come from different tables or passages of the source. No end group written: not given here.

Assays:
prothrombinase = prothrombinase assay with purified proteins; type: biochemical; conditions: for inhibition of prothrombinase activity in the absence of Factor Va: up to 200 μM PC311-325, up to 250 μM PC142-155
Method: FIG. 3 illustrates prothrombinase activity in the presence of PC311-325. The assay was performed using 1 nM factor Xa, 0.4 nM factor Va, 1.2 μM prothrombin and […] factor Xa in the absence of factor Va in TBS-BSA, 2.5 mM CaCl2, pH 7.4. Unless otherwise specified all prothrombinase assays were carried out in the presence of 50 μM phospholipid vesicles. In all cases solid symbols indicate prothrombinase activity in the presence of factor Va whereas open symbols indicate prothrombinase activity in the […] of factor Va. Solid circles with solid lines indicate prothrombinase activity (with factor Va) in the presence of PC311-325, solid squares with solid lines indicate prothrombinase activity (with factor Va) in the presence of PC311-325 but in the absence of phospholipid vesicles and solid triangles with dashed lines indicate prothrombinase activity (with factor Va) in the presence of the control peptide. Open circles with solid lines denote prothrombinase activity (without factor Va) in the presence of PC311-325 and open triangles with dashed lines denote prothrombinase activity (without factor Va) in the presence of the control peptide.
FIG. 4 illustrates prothrombinase activity in the presence of PC142-155. The assay was performed using 1 nM factor Xa, 0.4 nM factor Va, 1.2 μM prothrombin and 2.5 nM factor Xa in the absence of factor Va in TSB-BSA, 2.5 mM CaCl2, 50 μM phospholipid vesicles, pH 7.4. In all cases solid symbols indicate prothrombinase activity in the […] of factor Va. Solid circles with solid lines indicate prothrombinase activity (with factor Va) in the presence of PC142-155 and solid triangles with dashed lines indicate prothrombinase activity (with factor Va) in the presence of the scrambled peptide. Open circles with solid lines denote prothrombinase activity (without factor Va) in the presence of PC142-155 and open triangles with dashed lines denote prothrombinase activity (without factor Va) in the presence of the scrambled peptide.
Factor Va was determined via its cofactor activity in the activation of prothrombin by Factor Xa. Amounts of Factor Xa (Enzyme Research Lab.), phospholipid vesicles and prothrombin (purified as described by Stenflo, J. Biol. Chem., 25:355-363, (1976) from a barium citrate plasma precipitate purified by DEAE-sephadex chromatography) present in the assay were such that the rate of prothrombin activation was linearly dependent on factor Va and constant over the time course of the experiment. The molar concentration of Factor Xa was determined by active site titration as described by Chase et al., Biochem. Biophys. Res. Commun., 29:508-514 (1967). The molecular weights and extinction coefficients (E280 nm/mg/ml) used in the calculation of protein concentrations were as follows: prothrombin, 72,000 and 1.44; APC, 62,000 and 1.45; and Factor X, 65,300 and 1.16.
In a typical experiment, Factor Va was assayed as follows. An aliquot of the solution containing Va was admixed to a solution containing prothrombin, phospholipids and calcium in individual wells of a 96-well microtiter plate. Prothrombin activation was initiated with the mixture of Factor Xa to the Va-containing wells to form a reaction admixture. Final concentrations of reagents in the reaction mixture were the following: 1.2 μM prothrombin, 1 nM Xa, 0-0.4 nM Va, 50 μM phospholipid-vesicles (phosphatidylserine 20%/phosphatidylcholine 80%; M/M), in 0.05 M Tris-HCl at pH 7.4 containing 0.1 M NaCl, 0.5% BSA and 2.0 mM CaCl2. The reaction was maintained at 22° C. At one minute time intervals from initiation of the reaction, 20 μl aliquots of the reaction admixture were withdrawn and admixed to wells of an ELISA plate containing 80 μl TBS-BSA and 10 mM EDTA at pH 8.0 resulting in the quenching of the prothrombinase reaction. […]

Factor Xa = molecular target: T1, Factor Xa (Homo sapiens, UniProt P00742); experiment: Factor Xa clotting activity in NHP without added APC (Factor Xa-1 Stage clotting assay); type: biochemical; conditions: for IC50: read-out: 50% inhibition of Factor Xa clotting activity
T1 construct: purchased Enzyme Research Laboratories, Southbend, Ind
T1 sequence (P00742 41-179 limits assumed): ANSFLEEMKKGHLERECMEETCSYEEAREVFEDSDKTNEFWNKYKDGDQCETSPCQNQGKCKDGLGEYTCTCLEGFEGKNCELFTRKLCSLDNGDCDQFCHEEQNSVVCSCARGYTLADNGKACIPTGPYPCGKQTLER
T1 sequence (P00742 235-488 limits assumed): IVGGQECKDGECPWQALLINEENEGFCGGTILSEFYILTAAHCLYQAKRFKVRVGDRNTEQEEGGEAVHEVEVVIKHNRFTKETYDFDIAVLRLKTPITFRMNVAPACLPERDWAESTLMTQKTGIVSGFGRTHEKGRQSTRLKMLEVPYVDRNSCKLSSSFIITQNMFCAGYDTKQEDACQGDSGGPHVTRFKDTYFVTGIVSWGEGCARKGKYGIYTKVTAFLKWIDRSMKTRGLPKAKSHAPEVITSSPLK
Method: FIG. 1 illustrates factor Xa clotting activity in the presence of PC311-325. The assay was performed as described in Example 5a6). Solid circles with solid lines depict factor Xa activity of 0.15 nM factor Xa in the presence of PC311-325 and solid triangles with dashed lines depict factor Xa activity in the presence of the control peptide.
FIG. 2 illustrates factor Xa clotting activity in the presence of PC142-155. The assay was performed as described in Example 5a6). Solid circles with solid lines depict factor Xa activity of 0.15 nM factor Xa in NHP in the presence of PC142-155 and solid triangles with dashed lines depict factor Xa activity in the presence of the scrambled peptide.
To determine the effect of the APC-inhibiting peptides, PC311-325 and PC142-155, on the amidolytic activity of Factor Xa, amidolytic assays as described for APC in Example 5a3 were performed using 0.15 nM Factor Xa in the presence of increasing amounts of peptide. Peptide PC311-325 ranged in concentration from 0 to 100 μM whereas peptide PC142-155 ranged in concentration from 0 to 50 μM.
For the assay, 100 μl of 0.15 nM factor Xa, prepared in Example 5a5) were admixed with separate aliquots of either peptide prepared in TBS-BSA at pH 7.4 containing 0.02% NaN3 and 2 mM CaCl2 to form APC-peptide admixtures. After maintenance of the admixtures for 30 minutes at 37° C., 50 μl of 2.4 mM S-2222 in the same buffer were admixed to initiate the amidolytic reaction. The hydrolysis of the substrate was measured as described before.
The Factor Xa-1 Stage assay was conducted as described in Example 5a6). In that assay, the IC50 for peptides PT557-571. PT463-478, PT473-487, PT481-495, X404-418, X415-429 and X329-344 were 50, >500, 25, >500, 50, 115, and 500, respectively.

[1] = NHP, 0.15 nM factor Xa, no added APC

Row | Compound | inhibition of prothrombinase activity in the absence of Factor Va (prothrombinase) | IC50 (Factor Xa; [1]) | inhibition of prothrombinase activity in the presence of Factor Va (prothrombinase) | also measured
1 | KRNRTFVLNFIKIPV-NH2 [PC311-325, Lys-Arg-Asn-Arg-Thr-Phe-Val-Leu-Asn-Phe-Ile-Lys-Ile-Pro-Val] | very little if any significant inhibition | 7 µM |  | IC50 (prothrombinase; presence of Factor Va, read-out: 50% inhibition of prothrombinase activity): 8 µM
2 | VKFTIRVFNPRNLKI [Control Peptide, reference compound] | very little if any significant inhibition |  | very little if any significant inhibition | inhibition of Factor Xa activity (Factor Xa; 100 μM peptide, NHP): 30%
3 | CSCC[C@H](NC(=O)[C@H](CCCNC(=N)N)NC(=O)[C@H](CCCCN)NC(=O)[C@H](Cc1c[nH]c2ccccc12)NC(=O)[C@@H]1CCCN1C(=O)[C@H](CCCNC(=N)N)NC(=O)CN)C(=O)N[C@@H](CCC(=O)O)C(=O)N[C@@H](CCCCN)C(=O)N[C@@H](CCCCN)C(=O)N[C@@H](CCCNC(=N)N)C(=O)N[C@@H](CO)C(=O)N[C@@H](Cc1c[nH]cn1)C(=O)N[C@@H](CC(C)C)C(=O)N[C@@H](CS)C(N)=O [PC142-155, Gly-Arg-Pro-Trp-Lys-Arg-Met-Glu-Lys-Lys-Arg-Ser-His-Leu] |  | 10 µM |  | IC50 (Factor Xa; clotting assays in plasma): 5 µM
4 | MHKLREGKWRPKSR [Scrambled peptide, reference compound] |  |  | small amount of inhibition | inhibition of prothrombinase activity (prothrombinase; 100 μM peptide, presence of Factor Va): 40%; inhibition of Factor Xa activity (Factor Xa; 50 μM peptide, NHP): 40%; inhibition of Factor Xa activity (Factor Xa; 50 μM peptide, NHP, listed as scrambled control peptide): 37%
